Read-outs that look alike come from different tables or passages of the source.
Legend:
[1] = tested on: Key Broadleaf Weed and Crop Species; experiment: Post-Emergent Test II: postemergent herbicidal activity, visual rating after 14 d (Table 7); format: in vivo; conditions: post-emergence, 336 h; for pest or weed control at 140 g/ha: 140 g ai/ha; for pest or weed control at 35 g/ha: 35 g ai/ha; for pest or weed control at 70 g/ha: 70 g ai/ha
Excerpt: (§1) Herbicidal evaluations were made visually on a scale of 0 to 100 where 0 represents no activity and 100 represents complete plant death.
(§2) Seeds or nutlets of the desired test plant species were planted in Sun Gro Metro-Mix® 360 planting mixture, which typically has a pH of 6.0 to 6.8 and an organic matter content of about 30 percent, in plastic pots with a surface area of 64 square centimeters (cm^2). When required to ensure good germination and healthy plants, a fungicide treatment and/or other chemical or physical treatment was applied. The plants were grown for 7-21 d in a greenhouse with an approximate 15 h photoperiod which was maintained at about 23-29° C. during the day and 22-28° C. during the night. Nutrients and water were added on a regular basis and supplemental lighting was provided with overhead metal halide 1000-Watt lamps as necessary. The plants were employed for testing when they reached the first or second true leaf stage.
(§3) A weighed amount, determined by the highest rate to be tested, of each test compound was placed in a 25 mL glass vial and was dissolved in 4 mL of a 97:3 v/v mixture of acetone and DMSO to obtain concentrated stock solutions. […] The concentrated stock solutions obtained were diluted with 20 mL of an aqueous mixture containing acetone, water, isopropyl alcohol, DMSO, Atplus 411F crop oil concentrate, and Triton® X-155 surfactant in a 48.5:39:10:1.5:1.0:0.02 v/v ratio to obtain spray solutions containing the highest application rates. Additional application rates were obtained by serial dilution of 12 mL of the high rate solution into a solution containing 2 mL of a 97:3 v/v mixture of acetone and DMSO and 10 mL of an aqueous mixture containing acetone, water, isopropyl alcohol, DMSO, Atplus 411F crop oil concentrate, and Triton X-155 surfactant in a 48.5:39:10:1.5:1.0:0.02 v/v ratio to obtain ½×, ¼×, ⅛× and 1/16× rates of the high rate. Compound requirements are based upon a 12 mL application volume at a rate of 187 liters per hectare (L/ha). Formulated compounds were applied to the plant material with an overhead Mandel track sprayer equipped with 8002E nozzles calibrated to deliver 187 L/ha over an application area of 0.503 square meters at a spray height of 18 inches (43 cm) above the average plant canopy height. Control plants were sprayed in the same manner with the solvent blank.
(§4) The treated plants and control plants were placed in a greenhouse as described above and watered by subirrigation to prevent wash-off of the test compounds. After 14 d, the condition of the test plants as compared with that of the untreated plants was determined visually and scored on a scale of 0 to 100 percent where 0 corresponds to no injury and 100 corresponds to complete kill and are presented as indicated in Table 4.

[2] = tested on: Key Grass and Sedge Weeds as well as Grass Crops; experiment: Post-Emergent Test II: postemergent herbicidal activity, visual rating after 14 d (Table 8); format: in vivo; conditions: post-emergence, 336 h; for pest or weed control at 140 g/ha: 140 g ai/ha; for pest or weed control at 35 g/ha: 35 g ai/ha; for pest or weed control at 70 g/ha: 70 g ai/ha
Excerpt: as §1, §2, §3, §4

[3] = lambsquarters (Chenopodium album), read-out: Visual Growth Reduction (%) 14 Days After Application CHEAL
[4] = oilseed rape, canola (Brassica napus), read-out: Visual Growth Reduction (%) 14 Days After Application BRSNN
[5] = redroot pigweed (Amaranthus retroflexus), read-out: Visual Growth Reduction (%) 14 Days After Application AMARE
[6] = sunflower (Helianthus annuus), read-out: Visual Growth Reduction (%) 14 Days After Application HELAN
[7] = velvetleaf (Abutilon theophrasti), read-out: Visual Growth Reduction (%) 14 Days After Application ABUTH
[8] = wild poinsettia (Euphorbia heterophylla), read-out: Visual Growth Reduction (%) 14 Days After Application EPHHL
[9] = barnyardgrass (Echinochloa crus-galli), read-out: Visual Growth Reduction (%) 14 Days After Application ECHCG
[10] = maize, corn (Zea mays), read-out: Visual Growth Reduction (%) 14 Days After Application ZEAMX
[11] = rice (Oryza sativa), read-out: Visual Growth Reduction (%) 14 Days After Application ORYSA
[12] = wheat, spring (Triticum aestivum), read-out: Visual Growth Reduction (%) 14 Days After Application TRZAS
[13] = yellow nutsedge (Cyperus esculentus), read-out: Visual Growth Reduction (%) 14 Days After Application CYPES

Row | Compound | pest or weed control at 140 g/ha [1, 3] | pest or weed control at 140 g/ha [1, 4] | pest or weed control at 140 g/ha [1, 5] | pest or weed control at 140 g/ha [1, 6] | pest or weed control at 140 g/ha [1, 7] | pest or weed control at 140 g/ha [1, 8] | pest or weed control at 140 g/ha [2, 9] | pest or weed control at 140 g/ha [2, 10] | pest or weed control at 140 g/ha [2, 11] | pest or weed control at 140 g/ha [2, 12] | pest or weed control at 140 g/ha [2, 13] | pest or weed control at 35 g/ha [1, 3] | pest or weed control at 70 g/ha [1, 3] | pest or weed control at 35 g/ha [1, 4] | pest or weed control at 70 g/ha [1, 4] | pest or weed control at 35 g/ha [1, 5] | pest or weed control at 70 g/ha [1, 5] | pest or weed control at 35 g/ha [1, 6] | pest or weed control at 70 g/ha [1, 6] | pest or weed control at 35 g/ha [1, 7] | other results
1 | COC(=O)c1nc(-c2cc(OC)c3c(c2)OCO3)c(F)c(N)c1Cl [Compound 14] | 75 to 84% | 0 to 29% | 0 to 29% | 85 to 94% | 0 to 29% | 0 to 29% | 0 to 29% | 0 to 29% | 0 to 29% | 0 to 29% | 0 to 29% | – | – | – | – | – | – | – | – | – | pest or weed control at 140 g/ha ([2]; giant foxtail (Setaria faberi), read-out: Visual Growth Reduction (%) 14 Days After Application SETFA): 0 to 29%
2 | COC(=O)c1nc(-c2cc(F)c3c(c2)OC(F)(F)O3)c(F)c(N)c1Cl [Compound 17] | 0 to 29% | 0 to 29% | 0 to 29% | 0 to 29% | 0 to 29% | 0 to 29% | – | 60 to 74% | 0 to 29% | 0 to 29% | 0 to 29% | 0 to 29% | 0 to 29% | 0 to 29% | 0 to 29% | 0 to 29% | 0 to 29% | 0 to 29% | 0 to 29% | 0 to 29% | pest or weed control at 70 g/ha [1, 7]: 0 to 29%; pest or weed control at 35 g/ha [1, 8]: 0 to 29%; pest or weed control at 70 g/ha [1, 8]: 0 to 29%; pest or weed control at 35 g/ha [2, 10]: 0 to 29%; pest or weed control at 70 g/ha [2, 10]: 0 to 29%; pest or weed control at 35 g/ha [2, 11]: 0 to 29%; pest or weed control at 70 g/ha [2, 11]: 0 to 29%; pest or weed control at 35 g/ha [2, 12]: 0 to 29%; pest or weed control at 70 g/ha [2, 12]: 0 to 29%; pest or weed control at 35 g/ha [2, 13]: 0 to 29%; pest or weed control at 70 g/ha [2, 13]: 0 to 29%
3 | COC(=O)c1nc(-c2cc3c(cc2F)OC(F)(F)O3)c(F)c(N)c1OC [Compound 22, Methyl 4-amino-5-fluoro-3-methoxy-6-(2,2,6-trifluorobenzo[d][1,3]dioxol-5-yl)picolinate] | 0 to 29% | 0 to 29% | 0 to 29% | 85 to 94% | 0 to 29% | 45 to 59% | 45 to 59% | 75 to 84% | 0 to 29% | 60 to 74% | 95 to 100% | 0 to 29% | 0 to 29% | 0 to 29% | 0 to 29% | 0 to 29% | 0 to 29% | 85 to 94% | 85 to 94% | 0 to 29% | pest or weed control at 70 g/ha [1, 7]: 0 to 29%; pest or weed control at 35 g/ha [1, 8]: 30 to 44%; pest or weed control at 70 g/ha [1, 8]: 45 to 59%; pest or weed control at 35 g/ha [2, 9]: 0 to 29%; pest or weed control at 70 g/ha [2, 9]: 0 to 29%; pest or weed control at 35 g/ha [2, 10]: 0 to 29%; pest or weed control at 70 g/ha [2, 10]: 60 to 74%; pest or weed control at 35 g/ha [2, 11]: 0 to 29%; pest or weed control at 70 g/ha [2, 11]: 0 to 29%; pest or weed control at 35 g/ha [2, 12]: 0 to 29%; pest or weed control at 70 g/ha [2, 12]: 45 to 59%; pest or weed control at 35 g/ha [2, 13]: 95 to 100%; pest or weed control at 70 g/ha [2, 13]: 95 to 100%
